Reference: US8927500B2, “Peptidomimetic macrocycles” (Aileron Therapeutics, Inc., priority 2012, dated 2015)
Where two headings read alike, the source gives them in different places.

Assays:
Caspase 3 = Caspase 3 detection assay in SJSA1 cells; assay type: cell-based; settings: 48 h, Caspase 3 activation over DMSO-treated cells; for caspase 0.3 uM: 0.3 uM peptide; for caspase 3 uM: 3 uM peptide; for caspase 10 uM: 10 uM peptide; for caspase 30 uM: 30 uM peptide; for caspase 1 uM: 1 uM peptide
MDMX = molecular target: T1, MDMX (Homo sapiens, UniProt O15151); assay: Competitive fluorescence polarization assay for MDMX; assay type: binding; settings: competitive FP assay; for IC50: read-out: IC50 (MDMX); for Ki: read-out: Ki (MDMX)
T1 sequence (O15151 1-125): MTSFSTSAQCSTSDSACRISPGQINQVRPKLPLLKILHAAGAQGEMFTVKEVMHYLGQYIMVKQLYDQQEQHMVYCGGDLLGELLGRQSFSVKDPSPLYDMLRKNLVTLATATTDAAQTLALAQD

SJSA-1 cells = assay: Cell lysis by peptidomimetic macrocycles (LDH release); assay type: cell-based; settings: 1 h at 37C
MDM2 = MDM2 (Homo sapiens, UniProt Q00987); assay: Competitive fluorescence polarization assay for MDM2; assay type: binding; settings: competitive FP assay, MDM2
MDM2, sequence (Q00987 1-125): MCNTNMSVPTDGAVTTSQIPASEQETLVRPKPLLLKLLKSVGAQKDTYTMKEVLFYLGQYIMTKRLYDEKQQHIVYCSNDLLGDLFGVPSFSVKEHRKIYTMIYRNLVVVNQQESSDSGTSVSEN

Compound | caspase 0.3 uM (Caspase 3) | caspase 3 uM (Caspase 3) | caspase 10 uM (Caspase 3) | caspase 30 uM (Caspase 3) | IC50 (MDMX) [nM] | Ki (MDMX) [nM] | 6.25 uM % Lysed cells (1 h LDH) (SJSA-1 cells) [%] | 25 uM % Lysed cells (1 h LDH) (SJSA-1 cells) [%] | 50 uM % Lysed cells (1 h LDH) (SJSA-1 cells) [%] | IC50 (MDM2; read-out: IC50 (MDM2)) [nM] | Ki (MDM2; read-out: Ki (MDM2)) [nM] | caspase 1 uM (Caspase 3) | IC50 (MDM2; IC50 (MDM2)) [nM] | Ki (MDM2; Ki (MDM2)) [nM]
CC(=O)N[C@@H](CC(C)C)C(=O)N[C@H](C(=O)N[C@@H](Cc1ccccc1)C(=O)N[C@]1(C)CCCCCCC=CCCC[C@@](C)(C(=O)N[C@@H](CO)C(=O)NC(C)(C)C(=O)N[C@@H](C)C(=O)N[C@@H](C)C(N)=O)NC(=O)[C@H](CC(C)C)NC(=O)[C@H](CCC(N)=O)NC(=O)[C@H](C)NC(=O)[C@H](Cc2c[nH]c3ccccc23)NC(=O)[C@H](Cc2ccc(O)cc2)NC(=O)[C@H](C)NC1=O)[C@@H](C)O (single isomer, unassigned) [compound 26] | 1 | 1 | 3 | 14 | 100 to 1000 | 10 to 100 | 2 | −1 | 0 | 10 to 100 | < 10 | – | – | –
CC[C@H](C)[C@H](NC(=O)[C@H](C)NC(=O)[C@H](C)NC(=O)[C@]1(C)CCCC=CCCCCCC[C@@](C)(NC(=O)[C@H](Cc2ccccc2)NC(=O)[C@@H](NC(=O)[C@H](CC(C)C)NC(C)=O)[C@@H](C)O)C(=O)N[C@@H](C)C(=O)N[C@@H](Cc2ccc(O)cc2)C(=O)N[C@@H](Cc2c[nH]c3ccccc23)C(=O)N[C@@H](C)C(=O)N[C@@H](CCC(N)=O)C(=O)N[C@@H](CC(C)C)C(=O)N1)C(=O)N[C@@H](C)C(N)=O (single isomer, unassigned) [compound 65] | 1 | 6 | 28 | 34 | 100 to 1000 | 10 to 100 | 0 | 0 | 2 | 10 to 100 | < 10 | – | – | –
CC[C@H](C)[C@H](NC(=O)[C@H](C)NC(=O)[C@H](C)NC(=O)[C@]1(C)CCCC=CCCCCCC[C@@](C)(NC(=O)[C@H](Cc2ccccc2)NC(=O)[C@@H](NC(=O)[C@H](CC(C)C)NC(C)=O)[C@@H](C)O)C(=O)N[C@@H](C)C(=O)N[C@@H](Cc2ccc(O)cc2)C(=O)N[C@@H](Cc2c[nH]c3ccccc23)C(=O)N[C@@H](C)C(=O)N[C@@H](C)C(=O)N[C@@H](CC(C)C)C(=O)N1)C(=O)N[C@@H](C(N)=O)C(C)C (single isomer, unassigned) [compound 77] | 1 | 2 | 19 | 23 | 100 to 1000 | 10 to 100 | −2 | 1 | −1 | 10 to 100 | < 10 | – | – | –
CCCC[C@H](NC(=O)[C@H](C)NC(=O)[C@H](C)NC(=O)[C@]1(C)CCCC=CCCCCCC[C@@](C)(NC(=O)[C@H](Cc2ccccc2)NC(=O)[C@@H](NC(=O)[C@H](CC(C)C)NC(C)=O)[C@@H](C)O)C(=O)N[C@@H](C)C(=O)N[C@@H](Cc2ccc(O)cc2)C(=O)N[C@@H](Cc2c[nH]c3ccccc23)C(=O)N[C@@H](C)C(=O)N[C@@H](C)C(=O)N[C@@H](CC(C)C)C(=O)N1)C(=O)N[C@@H](C(N)=O)C(C)C (single isomer, unassigned) [compound 80] | 1 | 2 | 13 | 20 | 100 to 1000 | 10 to 100 | 0 | 1 | 5 | 10 to 100 | < 10 | – | – | –
CC(=O)N[C@@H](CC(C)C)C(=O)N[C@H](C(=O)N[C@@H](Cc1ccccc1)C(=O)N[C@]1(C)CCCCCCC=CCCC[C@@](C)(C(=O)N[C@@H](CO)C(=O)N[C@@H](CC(C)C)C(=O)N[C@@H](C)C(N)=O)NC(=O)[C@H](CC(C)C)NC(=O)[C@H](CCC(N)=O)NC(=O)[C@H](C)NC(=O)[C@H](Cc2c[nH]c3ccccc23)NC(=O)[C@H](Cc2ccc(O)cc2)NC(=O)[C@H](C)NC1=O)[C@@H](C)O (single isomer, unassigned) [compound 118] | 1 | 2 | 18 | 27 | 100 to 1000 | 10 to 100 | 4 | 2 | 4 | < 10 | < 10 | – | – | –
CC(=O)N[C@@H](CC(C)C)C(=O)N[C@H](C(=O)N[C@@H](Cc1ccccc1)C(=O)N[C@]1(C)CCCCCCC=CCCC[C@@](C)(C(=O)N[C@@H](CO)C(=O)N[C@@H](Cc2c[nH]c3ccccc23)C(=O)N[C@@H](C)C(N)=O)NC(=O)[C@H](CC(C)C)NC(=O)[C@H](CCC(N)=O)NC(=O)[C@H](C)NC(=O)[C@H](Cc2c[nH]c3ccccc23)NC(=O)[C@H](Cc2ccc(O)cc2)NC(=O)[C@H](C)NC1=O)[C@@H](C)O (single isomer, unassigned) [compound 120] | 2 | 11 | 20 | 30 | 100 to 1000 | 10 to 100 | 0 | 0 | 6 | 10 to 100 | < 10 | – | – | –
CC(=O)N[C@@H](CC(C)C)C(=O)N[C@H](C(=O)N[C@@H](Cc1ccccc1)C(=O)N[C@]1(C)CCCCCCC=CCCC[C@@](C)(C(=O)N[C@@H](CO)C(=O)N[C@H](C(=O)N[C@@H](C)C(N)=O)C(C)C)NC(=O)[C@H](CC(C)C)NC(=O)[C@H](CCC(N)=O)NC(=O)[C@H](C)NC(=O)[C@H](Cc2c[nH]c3ccccc23)NC(=O)[C@H](Cc2ccc(O)cc2)NC(=O)[C@H](C(C)C)NC1=O)[C@@H](C)O (single isomer, unassigned) [compound 139] | 1 | 2 | 9 | 18 | 100 to 1000 | 10 to 100 | −2 | −1 | −1 | < 10 | < 10 | – | – | –
CC(=O)N[C@@H](CC(C)C)C(=O)N[C@H](C(=O)N[C@@H](Cc1ccccc1)C(=O)N[C@]1(C)CCCCCCC=CCCC[C@@](C)(C(=O)N[C@@H](CO)C(=O)N[C@H](C(=O)N[C@@H](CO)C(N)=O)C(C)C)NC(=O)[C@H](CC(C)C)NC(=O)[C@H](CCC(N)=O)NC(=O)[C@H](C)NC(=O)[C@H](Cc2c[nH]c3ccccc23)NC(=O)[C@H](Cc2ccc(O)cc2)NC(=O)[C@H](C(C)C)NC1=O)[C@@H](C)O (single isomer, unassigned) [compound 142] | 1 | 2 | 15 | 20 | 10 to 100 | 10 to 100 | 1 | 1 | 3 | < 10 | < 10 | – | – | –
CC(=O)N[C@@H](CC(C)C)C(=O)N[C@H](C(=O)N[C@@H](Cc1ccccc1)C(=O)N[C@]1(C)CCCCCCC=CCCC[C@@](C)(C(=O)N[C@@H](CO)C(=O)N[C@@H](C)C(=O)N[C@@H](CO)C(N)=O)NC(=O)[C@H](CC(C)C)NC(=O)[C@H](CCC(N)=O)NC(=O)[C@H](C)NC(=O)[C@H](Cc2c[nH]c3ccccc23)NC(=O)[C@H](Cc2ccc(O)cc2)NC(=O)[C@H](C(C)C)NC1=O)[C@@H](C)O (single isomer, unassigned) [compound 144] | 1 | 4 | 10 | 16 | 100 to 1000 | 10 to 100 | 1 | −1 | 2 | < 10 | < 10 | – | – | –
CC(=O)N[C@@H](CC(C)C)C(=O)N[C@H](C(=O)N[C@@H](Cc1ccccc1)C(=O)N[C@]1(C)CCCCCCC=CCCC[C@@](C)(C(=O)N[C@@H](C)C(=O)N[C@@H](C)C(=O)N[C@@H](C)C(=O)N[C@@H](C)C(=O)N[C@@H](C)C(=O)N[C@@H](C)C(=O)N[C@H](C)C(N)=O)NC(=O)[C@H](CC(C)C)NC(=O)[C@H](CCC(N)=O)NC(=O)[C@H](C)NC(=O)[C@H](Cc2c[nH]c3ccccc23)NC(=O)[C@H](Cc2ccc(O)cc2)NC(=O)[C@H](C)NC1=O)[C@@H](C)O (single isomer, unassigned) [compound 316] | 6.5 | 21 | 32 | 32.5 | – | – | 0 | 0 | 1 | – | – | 10.5 | < 10 | < 10
CC(=O)N[C@@H](CC(C)C)C(=O)N[C@H](C(=O)N[C@@H](Cc1ccccc1)C(=O)N[C@]1(C)CCCCCCC=CCCC[C@@](C)(C(=O)N[C@@H](C)C(=O)N[C@@H](C)C(=O)N[C@@H](C)C(=O)N[C@@H](C)C(=O)N[C@@H](C)C(=O)N[C@@H](C)C(=O)N[C@H](C)C(N)=O)NC(=O)[C@H](CC(C)C)NC(=O)[C@H](CCC(N)=O)NC(=O)[C@H](C)NC(=O)[C@H](Cc2c[nH]c3ccccc23)NC(=O)[C@H](Cc2ccc(O)cc2)NC(=O)[C@H](C)NC1=O)[C@@H](C)O (single isomer, unassigned) [compound 317] | 3 | 9 | 26 | 35 | – | – | 0 | 0 | 0 | – | – | 4 | 10 to 100 | 10 to 100
